{
  "source": "patent US20140274766A1",
  "about": "“METHODS OF USING F-SPONDIN AS A BIOMARKER FOR CARTILAGE DEGENERATIVE CONDITIONS AND BONE DISEASES” (priority 2009, published 2014)",
  "key": {"[1]": {"system": "embryonic chick chondrocytes", "test": "TGF-β treatment of embryonic chick chondrocytes, maturation marker expression (quantitative PCR)", "format": "cell-based", "conditions": "TGF-β 5 days", "protocol": "FIGS. 24A and 24B. TGF-β enhances chondrocyte maturation and is required for F-spondin mediated induction of AP. (A) Relative gene expression of chondrocyte maturation markers following TGF-β treatment. Upper sternal chondrocytes were treated with TGF-β at the indicated doses for 5 days and mRNA levels determined by quantitative PCR. Values are expressed relative to untreated controls. (B) Effect of TGF-β depletion on F-spondin-mediated induction of AP. The conditioned media of FS1 or pcDNA3 transfected chondrocytes was harvested and immunodepleted of TGF-β or left untreated, and added to separate cultures in the presence of RA. […] Values represent mean expression levels of triplicate samples relative to untreated supernatants from vector ctrl cultures (=1).\nWe have previously reported that F-spondin can regulate the synthetic activity of articular chondrocytes via activation of latent TGF-β (Attur, M et al (2009) Faseb J 23:79-89). Since the TSR domain harbors conserved TGF-β binding motifs, we proposed that F-spondin-mediated enhancement of chondrocyte maturation similarly occurs via TGF-β. […] To determine whether […] is required for F-spondin induction of AP, we transfected chick chondrocytes with FS1 or control vector cDNA and harvested conditioned media supernatants after 48 h. Supernatants were then depleted of TGF-β by coincubation with anti-TGF-b antibody and added to separate cultures of chick chondrocytes in the presence of retinoic acid for 24 h."}, "OA cartilage": {"system": "OA cartilage", "test": "IL-1 effect on gene expression in OA cartilage explant cultures (QPCR)", "format": "cell-based, human", "conditions": "IL-1 1 ng/ml, 24-72 h, OA cartilage explants", "protocol": "FIG. 7: IL-1 inhibited F-spondin and aggrecan expression in OA cartilage. OA cartilage was stimulated with IL-1 (1 ng/ml) for 24-72 h and total RNA was isolated and QPCR was performed.\nSince IL-1 β appears to play a significant role in the pathogenesis of OA, its effects on F-spondin expression by QPCR in cartilage explants cultures was studied. Briefly, knee articular cartilage from patients undergoing knee replacement surgery was obtained and cut in 3-mm discs, and four to six discs (˜100 mg) were placed in organ culture in 2 ml of Ham's F-12 medium+0.1% human albumin (endo toxin fr) for 24-72 h, in the presence and absence of IL-1beta (1 ng/ml). At the end of the experiment the cartilage was frozen immediately in liquid nitrogen for RNA extraction."}, "chick chondrocytes": {"system": "chick chondrocytes", "test": "Alkaline phosphatase (AP) activity in RA-stimulated chick chondrocyte cultures", "format": "cell-based", "conditions": "RA 3 days", "protocol": "FIG. 16. Inhibition of F-spondin decreases AP activity in RA stimulated cultures. Chick chondrocytes were treated with RA at 100 nm for 5 days with and without F-spondin antibodies and AP activity assessed. Antibodies with specificities to the spondin domain (medium grey) and TSR domain (black) inhibited AP activity compared to ctrl (noAb) (light grey). Note the greater inhibitory effect of the TSR domain antibody. * p=<0.05 versus no ab ctrl.\nFIG. 17. The pro-maturation effect of F-spondin is not inhibited following neutralization of TGF-β activity by coculture with Latency Associated Peptide (LAP). AP activity was determined in chick chondrocyte cultures by ELISA following RA stimulation for 3 days. Cultures were either ctrl (RA only) or RA with either F-Spondin (1 ug/ml) or LAP (10 or 100 ng/ml), or RA with F-Spondin (1 ug/ml) and LAP (10 or 100 ng/ml) in combination.\nFIG. 18. Blocking αvβ3 integrin inhibits the promaturation effect of F-spondin. Chondocyte cultures were transfected as previously and stimulated with RA for 3 days in the presence of IgG control, or αvβ3 blocking antibodies prior to assay for AP activity. Inhibition of αvβ3 led to a ˜50% suppression of F-spondin-induced AP activity but had no effect on baseline AP activity (vector ctrl).\nFIGS. 23A, 23B and 23C. F-spondin regulation of chondrocyte maturation requires the TSR domain. (A) Schematic representation of F-spondin protein domains and plasmid constructs encoding either full length (FS1) or TSR domain truncated (FS6) cDNAs. (B) Relative AP activity of FS or pcDNA3 control transfected cultures after 5 days treatment. (C) Relative AP activity following inhibition of F-spondin protein domains. Upper sternal chondrocytes were stimulated with 0, 10, 35 or 100 nM retinoic acid (RA) for 5 days in culture. […]\nWe next determined that the pro-maturation effect of F-spondin is not inhibited following neutralization of TGF-β activity by coculture with Latency Associated Peptide (LAP) (R&D Systems, Cat No 246-LP/CF). […] AP activity was determined in chick chondrocyte cultures by ELISA following RA stimulation for 3 days. […]"}},
  "data": [
    {"substance": "TGF-β", "values": [
      {"measurement": "expression of AP", "setting": "[1]", "value": "dose dependent increases"},
      {"measurement": "expression of F-spondin", "setting": "[1]", "value": "dose dependent increases"},
      {"measurement": "expression of MMP-13", "setting": "[1]", "value": "dose dependent increases"}
    ]},
    {"substance": "IL-1: pro-inflammatory cytokine", "values": [
      {"measurement": "expression of F-spondin", "setting": "OA cartilage", "value": "significantly inhibited"},
      {"measurement": "expression of aggrecan", "setting": "OA cartilage", "value": "significantly inhibited"}
    ]},
    {"substance": "LAP: Latency Associated Peptide (R&D Systems), neutralizes TGF-β activity", "values": [
      {"measurement": "effect on AP activity increase seen with F-spondin alone", "setting": "chick chondrocytes; LAP 10-100 ng/ml with F-Spondin 1 ug/ml", "value": "did not significantly alter"},
      {"measurement": "chondrocyte maturation", "setting": "chick chondrocytes; LAP 10-100 ng/ml", "value": "accelerates maturation"}
    ]}
  ]
}
